Laboratory results: the supplement of paper PMC10307832

Key:
Experiment in all cases: relative viability (nuclei count vs DMSO), 5 days (fraction); higher = more cells survive
[1] = tested on: RERF-LC-KJ
Outline: (§1)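 Relative viability divides the nuclei count in treated wells by that in vehicle wells. Lung cancer cell lines were seeded in 1536-well plates, dosed by pin tool the next day, and fixed and stained after 5 days in one step with final 0.05% Triton X-100, 1% formaldehyde and 1 ug/ml Hoechst. Dosing was a single drug or a fixed anchor-drug dose plus five library-drug doses (not always all listed) in √10 steps, and values are medians of duplicate plates imaged at 4×.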

[2] = tested on: NCI-H1944
Outline: as §1

[3] = tested on: NCI-H650
Outline: as §1

[4] = tested on: NCI-H838
Outline: as §1

[5] = tested on: NCI-H520
Outline: as §1

[6] = tested on: PC-3 [JPC-3]
Outline: as §1

[7] = tested on: NCI-H1651
Outline: as §1

[8] = tested on: NCI-H1299
Outline: as §1

[9] = tested on: NCI-H1703
Outline: as §1

[10] = tested on: IA-LM
Outline: as §1

[11] = tested on: A549
Outline: as §1

[12] = tested on: Calu-6
Outline: as §1

[13] = tested on: EBC-1
Outline: as §1

CC(=O)O[C@@]12CO[C@@H]1C[C@H](O)[C@@]1(C)C(=O)[C@H](O)C3=C(C)[C@@H](OC(=O)[C@H](O)[C@@H](NC(=O)OC(C)(C)C)c4ccccc4)C[C@@](O)([C@@H](OC(=O)c4ccccc4)[C@H]21)C3(C)C [Docetaxel] + CS(=O)(=O)CCNCc1ccc(-c2ccc3ncnc(Nc4ccc(OCc5cccc(F)c5)c(Cl)c4)c3c2)o1 [Lapatinib] (partner 2 µM)
relative viability ([1]; first compound 0.0002 µM): 0.808 | relative viability ([1]; first compound 0.000632 µM): 0.841 | relative viability ([1]; first compound 0.002 µM): 0.498 | relative viability ([1]; first compound 0.006325 µM): 0.177 | relative viability ([1]; first compound 0.02 µM): 0.198 | relative viability ([2]; first compound 0.0002 µM): 0.545 | relative viability ([2]; first compound 0.000632 µM): 0.667 | relative viability ([2]; first compound 0.002 µM): 0.579 | relative viability ([2]; first compound 0.006325 µM): 0.242 | relative viability ([2]; first compound 0.02 µM): 0.112 | relative viability ([3]; first compound 0.0002 µM): 0.554 | relative viability ([3]; first compound 0.000632 µM): 0.384 | relative viability ([3]; first compound 0.002 µM): 0.307 | relative viability ([3]; first compound 0.02 µM): 0.168 | relative viability ([4]; first compound 0.0002 µM): 0.963 | relative viability ([4]; first compound 0.000632 µM): 0.63 | relative viability ([4]; first compound 0.002 µM): 0.259 | relative viability ([4]; first compound 0.006325 µM): 0.15 | relative viability ([4]; first compound 0.02 µM): 0.106 | relative viability ([5]; first compound 0.0002 µM): 0.856 | relative viability ([5]; first compound 0.000632 µM): 0.684 | relative viability ([5]; first compound 0.002 µM): 0.246 | relative viability ([5]; first compound 0.006325 µM): 0.162 | relative viability ([5]; first compound 0.02 µM): 0.12 | relative viability ([6]; first compound 0.0002 µM): 0.44 | relative viability ([6]; first compound 0.000632 µM): 0.476 | relative viability ([6]; first compound 0.002 µM): 0.385 | relative viability ([6]; first compound 0.006325 µM): 0.295 | relative viability ([6]; first compound 0.02 µM): 0.197 | relative viability ([7]; first compound 0.0002 µM): 0.724 | relative viability ([7]; first compound 0.000632 µM): 0.496 | relative viability ([7]; first compound 0.002 µM): 0.161 | relative viability ([7]; first compound 0.006325 µM): 0.11 | relative viability ([7]; first compound 0.02 µM): 0.101 | relative viability ([8]; first compound 0.0002 µM): 0.935 | relative viability ([8]; first compound 0.000632 µM): 0.968 | relative viability ([8]; first compound 0.002 µM): 0.704 | relative viability ([8]; first compound 0.006325 µM): 0.467 | relative viability ([8]; first compound 0.02 µM): 0.298 | relative viability ([9]; first compound 0.0002 µM): 1.1 | relative viability ([9]; first compound 0.000632 µM): 0.664 | relative viability ([9]; first compound 0.002 µM): 0.219 | relative viability ([9]; first compound 0.006325 µM): 0.157 | relative viability ([9]; first compound 0.02 µM): 0.148 | relative viability ([10]; first compound 0.0002 µM): 0.46 | relative viability ([10]; first compound 0.000632 µM): 0.153 | relative viability ([10]; first compound 0.002 µM): 0.0797 | relative viability ([10]; first compound 0.006325 µM): 0.069 | relative viability ([10]; first compound 0.02 µM): 0.068 | relative viability ([11]; first compound 0.0002 µM): 0.972 | relative viability ([11]; first compound 0.002 µM): 0.0898 | relative viability ([11]; first compound 0.006325 µM): 0.0769 | relative viability ([11]; first compound 0.02 µM): 0.0547 | relative viability ([12]; first compound 0.0002 µM): 0.982 | relative viability ([12]; first compound 0.000632 µM): 0.879 | relative viability ([12]; first compound 0.002 µM): 0.286 | relative viability ([12]; first compound 0.006325 µM): 0.125 | relative viability ([12]; first compound 0.02 µM): 0.112 | relative viability ([13]; first compound 0.0002 µM): 0.201 | relative viability ([13]; first compound 0.000632 µM): 0.227 | relative viability ([13]; first compound 0.002 µM): 0.228 | relative viability ([13]; first compound 0.006325 µM): 0.197 | relative viability ([13]; first compound 0.02 µM): 0.195
